In PMC11061149, “Protein mimetic 2D FAST rescues alpha synuclein aggregation mediated early and post disease Parkinson’s phenotypes” (Nature Communications, 2024):
Where “and” joins values, the source holds several entries; their conditions need not be identical. Equal entries are not always repeated.

How the values were obtained:
UA196 worms = assay: ROS level in post-disease onset PD model of UA196 worms; format: in vivo, C. elegans
Description: The UA196 worms were bleached, and the eggs were incubated on PLATE 1. On day two, the UA196 worms were transferred (using M9 buffer) on PLATE 2 (without ligand). On day five, 100 UA196 worms were used to determine the ROS level (as described earlier) prior to the treatment with ligands on day five. In tandem, ~200 worms were transferred to PLATE 3 (with ligand) using M9 buffer (10-20 µL) and the plate was incubated at 20 °C in the incubator. On day 8, 100 UA196 worms from PLATE 2 (without ligand) and PLATE 3 (with ligand) were used to determine the ROS level (as described earlier). For each condition, three biological replicates were performed, and 3 technical replicates were used for each biological replicate. […] (n = 3 independent experiments and each n consisted of 3 technical replicates).

[1] = tested on: UA196 worms (human αS and GFP in DA neurons); assay: Confocal counting of healthy DA neurons in UA196 worms, early treatment (day two and four); format: in vivo, C. elegans; set-up: key to Total neurons, Average: healthy DA neurons per replicate of 10 worms, max 60
Text: The aggregation of αS is associated with the neurodegeneration of DA neurons, which is a pathological hallmark of PD. Next, we investigated the neuroprotective effect of NS163 on the intraneuronal αS aggregation-mediated degeneration of DA neurons in a well-established C. elegans PD model (UA196)[20],[72]–[75]. The UA196 worms express both human αS and GFP in DA neurons under the control of the dopamine promoter genotype (Pdat-1::GFP; Pdat-1::α-SYN). The expression and aggregation of αS in six DA neurons that are located within the anterior region of worms lead to progressive neurodegeneration characteristics during the aging of UA196 worms. This strain has been used to gain insights into the PD-associated mechanisms and to assess the neuroprotective effect of ligands against the intraneuronal αS aggregation[20],[72]–[75]. During the aging of worms, αS protein aggregates and degenerates the DA neurons as represented by the gradual loss of cell bodies as observed from day 3 (Fig. 7b, c, filled red arrow) to day 5 (Fig. 7d, e, empty red arrow), to day 15 (Fig. 7f, g, empty red arrow). Additionally, there was fragmentation and blebbing of neurites from day 3 (Fig. 7b, c, filled yellow arrow) to day 5 (Fig. 7d, e, empty yellow arrow), which has been observed by others as well[72]–[75]. The maximum number of healthy DA neurons in one UA196 worm is six on day 3 (no degeneration) and we used 10 worms/biological replicate, which makes a total of 60 healthy DA neurons/biological replicate. Therefore, for each study, the maximum number of healthy DA neurons in UA196 worms is 60 as an average for each biological replicate. […] None of the UA196 worms had all six healthy DA neurons on day 5 (Fig. 7k, -NS163) and there was a gradual decline in the total number of healthy DA neurons in UA196 worms (Supplementary Fig. 26a). […] The average number of intact DA neurons in UA196 worms treated with NS163 was 59.5, 58.7, and 57.3 on day five, 10, and 15, respectively (Fig. 7j, red line). Additionally, the total number of treated worms with all six intact DA neurons were 57, 52, and 47 on day 5, 10, and 15, respectively (Fig. 7k, Supplementary Fig. 26b).
In UA196 strain, human αS and GFP are expressed in DA neurons under control of a dopamine transporter-specific promoter [Pdat-1::α-syn+Pdat-1::GFP], which results in age-dependent neurodegeneration of six DA neurons.
This experiment was performed based on previously described protocols with slight modifications[24],[65],[88]. Briefly, the worm strains (NL5901 or UA196) were bleached at the same time and the eggs were incubated on PLATE 1. On day two, the worms were divided into two batches. One half of the worms were transferred (using M9 buffer) on PLATE 2 (without ligand) and the second half of the worms were transferred to PLATE 3 (with ligand). The concentration of the ligands varied from 10–50 µM as described in the main manuscript. The worms were incubated on PLATE 2 or PLATE 3 up to day 3 at 20 °C in an incubator with constant humidity. On day four, the ligand (10–50 µM, stock conc. = 10 mM in DMSO, DMSO from 0.1–0.5%, v/v) was added again to PLATE 3. For confocal imaging, at least 10 worms per condition (from PLATE 2 or PLATE 3) were transferred to a cover slide containing an anesthetic (40 mM sodium azide), and mounted on glass microscope slide containing 2% agarose pads using a reported protocol. The images of the worms were collected using an Olympus Fluoview FV3000 confocal/2-photon microscope (40 x Plan-Apo/1.3 NA objective with DIC capability) and processed using the OlympusViewer in ImageJ software. For NL5901 worms, the inclusions of the aggregated αS (GFP puncta in the muscle cells) were manually counted (10 worms per condition) for the five-day imaging period (day 5 to day 9) for PLATE 2 or PLATE 3. […]

[2] = UA196+NS132, Day 3, 10 per trial
[3] = UA196+NS132, Day 5, 10 per trial
[4] = UA196+NS132, Day 10, 10 per trial
[5] = UA196+NS132, Day 15, 10 per trial

Cc1ccc(NC(=O)c2ccc(NC(=O)c3ccc([N+](=O)[O-])c(NCCc4c[nH]c5ccccc45)n3)c(NCC3CCCCC3)n2)c(OCC(=O)O)n1 [NS132]
ROS level in UA196 worms, post-disease model, in words (UA196 worms; 50 μM ligand on day five, ROS on day eight): very effective in decreasing the ROS level | ROS level (dye fluorescence), Average (UA196 worms; UA196+NS132, Day 5 (same value as UA196 control)): 1262.3 | ROS level (dye fluorescence), Average (UA196 worms; UA196+NS132, Day 8): 733.721 | number of intact DA neurons in UA196 worms (max. 60) ([1]; 50 µM ligand on day two and four, day 15 (untreated 13.5)): 51 | Total neurons, Average ([1]; UA196+NS132, Day 3): 59.5 | Number of worms with 1 neurons [1, 2]: 0 | Number of worms with 2 neurons [1, 2]: 0 | Number of worms with 6 neurons [1, 2]: 9 and 10 | number of worms with 3 neurons [1, 2]: 0 | number of worms with 4 neurons [1, 2]: 0 | Total neurons, Average ([1]; UA196+NS132, Day 5): 55.8333 | Number of worms with 1 neurons [1, 3]: 0 | Number of worms with 2 neurons [1, 3]: 0 | Number of worms with 5 neurons [1, 3]: 2 and 3 and 4 | Number of worms with 6 neurons [1, 3]: 7 and 8 and 6 and 5 | number of worms with 3 neurons [1, 3]: 0 | Total neurons, Average ([1]; UA196+NS132, Day 10): 53.1667 | Number of worms with 1 neurons [1, 4]: 0 | Number of worms with 2 neurons [1, 4]: 0 | Number of worms with 6 neurons [1, 4]: 6 and 4 and 5 | number of worms with 3 neurons [1, 4]: 0 | Total neurons, Average ([1]; UA196+NS132, Day 15): 51 | Number of worms with 1 neurons [1, 5]: 0 | Number of worms with 2 neurons [1, 5]: 0 | Number of worms with 5 neurons [1, 5]: 5 and 4 and 3 | Number of worms with 6 neurons [1, 5]: 3 and 4 and 5 | Total neurons, UA196 worms+Ligands ([1]; UA196 worms+Ligands, one value per trial, day not given for ligand (controls: Day 3, Day 15)): 53 and 48 and 50 and 54 and 49 and 52
